Experimental data published in the supplement of paper PMC10307832.

Experiments:
Experiment in all cases: relative viability (nuclei count vs DMSO), 5 days (fraction); higher = more cells survive
IU1-47 + Dasatinib = compound: CC1=CC(=C(N1C2=CC=C(C=C2)Cl)C)C(=O)CN3CCCCC3 [IU1-47] + Cc1nc(Nc2ncc(C(=O)Nc3c(C)cccc3Cl)s2)cc(N2CCN(CCO)CC2)n1 [Dasatinib] (partner 0.075 µM)
Summary of the method: (§1)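 For relative viability, nuclei counts in treated wells were divided by those in vehicle wells. Lung cancer cell lines had been pin-tool dosed in 1536-well plates the day after seeding and cultured for 5 days, then fixed and stained in one step (final 0.05% Triton X-100, 1% formaldehyde, 1 ug/ml Hoechst) and imaged at 4×. Doses were one drug alone or a fixed anchor-drug dose plus five library-drug doses (not always all listed) in √10 steps, and values are duplicate-plate medians.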

IU1-47 + Alpelisib = compound: CC1=CC(=C(N1C2=CC=C(C=C2)Cl)C)C(=O)CN3CCCCC3 [IU1-47] + Cc1nc(NC(=O)N2CCC[C@H]2C(N)=O)sc1-c1ccnc(C(C)(C)C(F)(F)F)c1 [Alpelisib] (partner 2 µM)
Summary of the method: as §1

FG-4592 + Phenformin = compound: Cc1nc(C(=O)NCC(=O)O)c(O)c2ccc(Oc3ccccc3)cc12 [FG-4592] + N=C(N)NC(=N)NCCc1ccccc1 [Phenformin] (partner 250 µM)
Summary of the method: as §1

FG-4592 + Foretinib = compound: Cc1nc(C(=O)NCC(=O)O)c(O)c2ccc(Oc3ccccc3)cc12 [FG-4592] + COc1cc2c(Oc3ccc(NC(=O)C4(C(=O)Nc5ccc(F)cc5)CC4)cc3F)ccnc2cc1OCCCN1CCOCC1 [Foretinib] (partner 0.25 µM)
Summary of the method: as §1

Cell Line | relative viability (IU1-47 + Dasatinib; first compound 0.08 µM) | relative viability (IU1-47 + Dasatinib; first compound 0.253 µM) | relative viability (IU1-47 + Dasatinib; first compound 0.8 µM) | relative viability (IU1-47 + Dasatinib; first compound 2.53 µM) | relative viability (IU1-47 + Dasatinib; first compound 8 µM) | relative viability (IU1-47 + Alpelisib; first compound 0.08 µM) | relative viability (IU1-47 + Alpelisib; first compound 0.253 µM) | relative viability (IU1-47 + Alpelisib; first compound 0.8 µM) | relative viability (IU1-47 + Alpelisib; first compound 2.53 µM) | relative viability (IU1-47 + Alpelisib; first compound 8 µM) | relative viability (FG-4592 + Phenformin; first compound 0.08 µM) | relative viability (FG-4592 + Phenformin; first compound 0.253 µM) | relative viability (FG-4592 + Phenformin; first compound 0.8 µM) | relative viability (FG-4592 + Phenformin; first compound 2.53 µM) | relative viability (FG-4592 + Phenformin; first compound 8 µM) | relative viability (FG-4592 + Foretinib; first compound 0.08 µM) | relative viability (FG-4592 + Foretinib; first compound 0.253 µM) | relative viability (FG-4592 + Foretinib; first compound 0.8 µM) | relative viability (FG-4592 + Foretinib; first compound 2.53 µM) | relative viability (FG-4592 + Foretinib; first compound 8 µM)
LOU-NH91 | 0.597 | 0.581 | 0.605 | 0.608 | 0.534 | 0.761 | 0.75 | 0.71 | 0.692 | 0.668 | 0.673 | 0.647 | 0.551 | 0.677 | 0.677 | 0.971 | 0.879 | 0.917 | 0.868 | 0.91
LU99A | 0.756 | 0.499 | 0.457 | 0.659 | 0.462 | 0.498 | 0.59 | 0.488 | 0.627 | 0.663 | 0.839 | 0.774 | 0.706 | 0.82 | 0.921 | 0.789 | 0.791 | 0.743 | 0.879 | 0.808
LXF-289 | 0.219 | 0.24 | 0.179 | 0.223 | 0.209 | 1.06 | 1.09 | 1.12 | 1.06 | 1.05 | 0.518 | 0.479 | 0.527 | 0.457 | 0.51 | 0.97 | 0.981 | 0.993 | 0.974 | 1.12
NCI-H522 | 0.807 | 0.872 | 0.748 | 0.759 | 0.907 | – | – | – | – | – | 0.711 | 0.583 | 0.562 | 0.669 | 0.641 | – | – | – | – | –
NCI-H1299 | – | – | – | – | – | 1.05 | 1.11 | 1.13 | 1.13 | 0.987 | – | – | – | – | – | 1.12 | 1.06 | 1.15 | 1.07 | 1.07
